In US5852015A, “Triazine containing anionic compounds useful as antiviral agents” (American Cyanamid Company, priority 1997, dated 1998):
“And” between values parts separate entries of the source, which are not always exact repeats. Equal values may be shown once. Where a name gives a salt, the structure may show the parent alone. Read-outs that look alike come from different tables or passages of the source.

How the values were obtained:
[1] = test system: RSV A2; assay type: in vivo, cotton rats; settings: for inhibition of RSV in vivo (summary): cotton rats, all experiments of Table 3
[2] = test system: viral protein synthesis; assay: viral protein synthesis in infected vero cells (mechanism of action); assay type: cell-based
Description: The time in the virus life-cycle when Example 1 exerts its effect was determined to increase understanding of the mechanism of action. This was accomplished by adding and removing the compound at various times relative to infection and assessing the effect on viral protein synthesis. Vero cells were infected on ice for 1 hour, unadsorbed virus was removed, and then the infected cells were incubated at 37° C. for 18 hours (virus adsorption will occur on ice, but fusion will not proceed until the temperature is raised to 18° C. or above). After the 18 hour incubation at 37° C. (when the bulk of ongoing protein synthesis was directed by viral RNAs), ^35 S-methionine was added for 2 hours, the cells were lysed, and the labeled proteins were analyzed on SDS-PAGE gels. The viral N, P, and M proteins were then evident. […] However, when the compound of Example 1 was added even after only 5 minutes incubation at 37° C., viral protein production was unimpeded. Therefore, the process inhibited was the fusion process or some closely succeeding step which is required for later viral gene expression.

[3] = test system: syncytium formation in cells previously infected with RSV; assay: syncytium formation in RSV-infected vero cells; assay type: cell-based, African green monkey
Description: This was done by infecting vero cells at a multiplicity of infection of 3 for 1 hour, then replacing the original medium with fresh medium. After 6 hours incubation, compound was added. After 24 and 48 hours, the infected cells were examined under the microscope to determine the extent of syncytium formation. Differences in the extent of syncytium formation due to the presence of compound were easily recognized and the compounds were easily ranked in terms of potency in this assay. The actual IC50's as judged by this method are approximate. They were 0.3 and 0.05 μg/ml for compounds 16 and 17, respectively.

[4] = test system: RSV (A2); assay: viral yield reduction assay (growth inhibition), RSV; assay type: cell-based, human respiratory syncytial virus; settings: 4 days; for IC50: human respiratory syncytial virus, 96 h
Description: (§1) The compounds were tested for biological activity using viral yield reduction assays. Host cells (indicated as HF for human foreskin fibroblasts and as vero, the commonly used African green monkey cell line, in Tables 1 and 1a) were plated at 4×10^4 cells/well in cell growth medium with 2% fetal bovine serum or 2% calf serum in 96-well plates (0.1 ml/well) and incubated overnight. The compounds were added to individual wells to give final concentrations ranging from 50 to 0.1 μg/ml in two-fold concentration steps. After 1 hour, virus was added, and the incubation was continued for 4 days with RSV or CMV and for 2 days with HSV. At the end of the experiment, the amount of virus growth was quantitated and the yield reduction at various concentrations of compound was calculated. This allows estimation of the concentration of compound giving 50% reduction in virus growth (IC50).
(§2) Table 1. Fifty percent inhibitory concentrations for growth inhibition
(§3) (yield reduction) and for plaque formation were determined as described i
(§4) the text. The virus strains used were RSV (A2), CMV (Ad169), HSV1
(§5) (Patton). The host cells used were human foreskin fibroblasts (HF) and […]

[5] = test system: CMV (Ad169); assay: viral yield reduction assay (growth inhibition), CMV; assay type: cell-based, human cytomegalovirus; settings: Human betaherpesvirus 5, AD169, 96 h, HF cells, 4 days
Description: as §1, §2, §3, §4, §5

[6] = test system: RSV (A2); assay: viral plaque reduction assay, RSV A2; assay type: cell-based, human respiratory syncytial virus; settings: Table 1; vero cells
[7] = test system: CMV (Ad169); assay: viral plaque reduction assay, CMV Ad169; assay type: cell-based, human cytomegalovirus; settings: Table 1; HF cells
[8] = test system: RSV; assay type: in vivo, cotton rats; settings: EXPT 3, Lavage/Plaque
[9] = test system: RSV; assay type: in vivo, cotton rats; settings: EXPT 3, Lung/Plaque
[10] = EXPT 3, i.n. 30 mg/k d 1,2,3, Lavage/CPE
[11] = EXPT 3, i.n. d 0 15 mg/k, d 1 30 mg/k, Lavage/CPE
[12] = EXPT 3, i.n. d 0 15 mg/k, d 1,2,3 30 mg/k, Lavage/CPE
[13] = EXPT 3, i.p. 30 mg/k d 1,2,3, Lavage/CPE
[14] = i.n. d 0 15 mg/k, d 1,2,3 30 mg/k

With `NC(=O)c1ncn([C@@H]2O[C@H](CO)[C@@H](O)[C@H]2O)n1` [Ribavirin, reference compound] the Fold red. ([1]; rat, in vivo) was 0.8 log10 and the Mean titer ([1]; rat, in vivo) was 3.3 log10/g lung.
`NC(=O)CCN(CCC(N)=O)S(=O)(=O)c1cccc(Nc2nc(Nc3cccc(S(=O)(=O)N(CCC(N)=O)CCC(N)=O)c3)nc(Nc3ccc(/C=C/c4ccc(Nc5nc(Nc6cccc(S(=O)(=O)N(CCC(N)=O)CCC(N)=O)c6)nc(Nc6cccc(S(=O)(=O)N(CCC(N)=O)CCC(N)=O)c6)n5)cc4S(=O)(=O)O)c(S(=O)(=O)O)c3)n2)c1` [Example 1, 4,4'-Bis[4.6-di[3-aminophenyl-N,N-bis(2-carbamoyl-ethyl)sulfonylimino]-1,3,5-triazin-2-ylamino]-stilbene-2,2'-disulfonic acid, disodium salt] was tested, and the viral protein synthesis ([2]; 10 μg/ml added immediately after virus adsorption and before raising temperature to 37° C.) was “fully prevented”, the viral protein production ([2]; added after only 5 minutes incubation at 37° C.) was “unimpeded” and the “inhibition of syncytium formation” value [3] was “inhibit syncytium formation”. For the same molecule, the “inhibition of RSV in vivo (summary)” value [1] was “inhibit RSV in vivo” and the Mean titer ([1]; rat, in vivo, disodium salt) was 2.8 log10/g lung and 1.73 log10/g lung and 3.43 log10/g lung.
Molecule `NC(=O)CCN(CCC(N)=O)S(=O)(=O)c1cccc(Nc2nc(Cl)nc(Nc3ccc(/C=C/c4ccc(Nc5nc(Cl)nc(Nc6cccc(S(=O)(=O)N(CCC(N)=O)CCC(N)=O)c6)n5)cc4S(=O)(=O)O)c(S(=O)(=O)O)c3)n2)c1` [Example 8, 4,4'-Bis[4-chloro-6-[3-aminophenyl-N,N-bis(2-carbamoylethyl)sulfonylimino]-1,3,5-triazin-2-ylamino]-stilbene-2,2'-disulphonic acid, disodium salt] has an IC50 ([4]; HF cells, read-out: IC50 in growth inhibition RSV/HF) greater than 50 mg/L, an IC50 ([4]; vero cells, read-out: IC50 in growth inhibition RSV/VERO) greater than 50 mg/L and an IC50 [5] greater than 50 mg/L.
With “9.9-Dioxo-2,7-Bis[4,6-di[3-aminophenyl-N,N-bis(2-carbamoylethyl)sulfonylimino]-1,3,5-triazin-2-ylamino]-dibenzothiophen-3.6-disulfonic acid, disodium salt [Example 23]” the “IC50 in plaque assay RSV/VERO” value [6] was 8 mg/L and the “IC50 in plaque assay CMV/HF” value [7] was 20 mg/L.
With “4,4'-Bis[4-chloro-6-di[4-amino-N'-[3-aminophenyl-N,N-bis(2-carbamoylethyl)sulfonylimino]-benzamide]-1,3,5-triazin-2-ylamino]-stilbene-2,2'-disulfonic acid, disodium salt [Example 24]” the “IC50 in growth inhibition RSV/VERO” value ([4]; vero cells) was 50 mg/L.
For `NC(=O)CCN(CCC(N)=O)S(=O)(=O)c1cccc(Nc2nc(Nc3cccc(S(=O)(=O)N(CCC(N)=O)CCC(N)=O)c3)nc(Nc3ccc(-c4ccc(Nc5nc(Nc6cccc(S(=O)(=O)N(CCC(N)=O)CCC(N)=O)c6)nc(Nc6cccc(S(=O)(=O)N(CCC(N)=O)CCC(N)=O)c6)n5)cc4S(=O)(=O)O)c(S(=O)(=O)O)c3)n2)c1` [Example 4, 4,4'-Bis[4,6-di[3-aminophenyl-N,N-bis(2-carbamoyl-ethyl)sulfonylimino]-1,3,5-triazin-2-ylamino]-biphenyl-2,2'-disulfonic acid, disodium salt], the “inhibition of syncytium formation” value [3] was “inhibit syncytium formation”, the Fold red. [1, 10] was 2.51 log10 and the Mean titer [1, 10] was 1.67 log10/g lung. For the same molecule, the Fold red. [1, 11] was 2.52 log10, the Mean titer [1, 11] was 1.66 log10/g lung and the Fold red. [1, 12] was 2.13 log10. For the same molecule, the Mean titer [1, 12] was 2.05 log10/g lung, the Fold red. [1, 13] was 0 log10 and the Mean titer [1, 13] was 4.18 log10/g lung. For the same molecule, the “inhibition of RSV in vivo (summary)” value [1] was “inhibit RSV in vivo”, the Fold red. ([1]; rat, in vivo) was 1.63 log10 and the Mean titer ([1]; rat, in vivo) was 2.05 log10/g lung. For the same molecule, the Fold red. ([8]; i.n. 30 mg/k d 1,2,3) was 1.2 log10, the Mean titer ([8]; i.n. 30 mg/k d 1,2,3) was 3.09 log10/g lung and the Fold red. ([8]; i.n. d 0 15 mg/k, d 1 30 mg/k) was 2.03 log10. For the same molecule, the Mean titer ([8]; i.n. d 0 15 mg/k, d 1 30 mg/k) was 2.26 log10/g lung, the Fold red. [8, 14] was 2.04 log10 and the Mean titer [8, 14] was 2.25 log10/g lung. It also gave a Fold red. ([8]; i.p. 30 mg/k d 1,2,3) of 0.09 log10, a Mean titer ([8]; i.p. 30 mg/k d 1,2,3) of 4.1 log10/g lung and a Fold red. ([9]; i.n. 30 mg/k d 1,2,3) of 1.18 log10. The Mean titer ([9]; i.n. 30 mg/k d 1,2,3) was 3.37 log10/g lung, the Fold red. ([9]; i.n. d 0 15 mg/k, d 1 30 mg/k) was 2.23 log10 and the Mean titer ([9]; i.n. d 0 15 mg/k, d 1 30 mg/k) was 2.32 log10/g lung. It also gave a Fold red. [9, 14] of 2.3 log10, a Mean titer [9, 14] of 2.25 log10/g lung and a Fold red. ([9]; i.p. 30 mg/k d 1,2,3) of 0.26 log10. The Mean titer ([9]; i.p. 30 mg/k d 1,2,3) was 3.92 log10/g lung.
In the case of “4-[4.6-Di[3-aminophenyl-N,N-bis(2-carbamoylethyl)sulfonylimino]-1,3,5-triazin-2-ylamino]-4'-(4-[3-aminophenyl-N,N-bis(2-carbamoylethyl)sulfonylimino]- 6-[3-aminophenyl-N,N bis(3-propionic acid)-1,3,5-triazin-2-ylamino]-stilbene-2,2'-disulphonic acid, disodium salt [Example 10]”, the “IC50 in growth inhibition RSV/HF” value ([4]; HF cells) is reported as less than 3 mg/L and the “IC50 in growth inhibition RSV/VERO” value ([4]; vero cells) is reported as 0.7 mg/L.
In the case of “4,4'-Bis[4,6-di[4-amino-N'-[3-aminophenyl-N,N-bis(2-hydroxyethyl)sulfonylimino]-benzensulfoamide]-1,3,5-triazin-2-ylamino]-stilbene-2,2'-disulfonic acid, disodium salt [Example 25]”, the “IC50 in growth inhibition RSV/VERO” value ([4]; vero cells) is reported as 30 mg/L.
